From US11208413B2, “Pyrimidopyrimidinones useful as wee-1 kinase inhibitors” (ALMAC DISCOVERY LIMITED, priority 2017, dated 2021)
In brackets after ≈: the same amount, converted by molar mass. Read-outs that look alike come from different tables or passages of the source.

Legend:
pCDC2 = test: Wee-1 potency in cells (pCDC2 value); type: cell-based
Wee-1 kinase = Wee-1 kinase (Homo sapiens, UniProt P30291); test: Wee-1 kinase inhibitory effect (Wee-1 IC50); type: biochemical; details: read-out: Wee1 IC50
Chain of Wee-1 kinase (P30291 whole entry): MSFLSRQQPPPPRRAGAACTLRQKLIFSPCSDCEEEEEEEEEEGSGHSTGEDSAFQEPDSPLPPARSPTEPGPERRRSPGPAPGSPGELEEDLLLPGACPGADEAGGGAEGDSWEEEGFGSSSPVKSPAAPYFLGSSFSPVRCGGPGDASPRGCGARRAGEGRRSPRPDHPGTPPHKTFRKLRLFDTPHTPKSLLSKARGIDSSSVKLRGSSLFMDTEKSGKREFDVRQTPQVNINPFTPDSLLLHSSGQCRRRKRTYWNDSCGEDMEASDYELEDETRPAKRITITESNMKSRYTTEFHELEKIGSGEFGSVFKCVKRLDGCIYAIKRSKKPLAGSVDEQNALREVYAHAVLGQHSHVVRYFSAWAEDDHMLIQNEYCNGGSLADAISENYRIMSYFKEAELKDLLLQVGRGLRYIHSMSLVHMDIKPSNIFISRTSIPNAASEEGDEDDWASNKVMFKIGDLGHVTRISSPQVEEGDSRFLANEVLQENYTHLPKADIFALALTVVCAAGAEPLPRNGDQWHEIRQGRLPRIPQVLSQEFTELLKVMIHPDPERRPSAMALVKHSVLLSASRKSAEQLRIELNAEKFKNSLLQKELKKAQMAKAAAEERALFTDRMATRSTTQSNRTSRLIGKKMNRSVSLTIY

Kinetic solubility = type: physicochemical; details: kinetic from dmso stock
Procedure: (§1) The test methods employed to determine Wee-1 kinase inhibitory effect, Wee-1 potency in cells and kinetic solubility were the same as those taught in WO 2015/092431 (see page 350 to 358). The other test methods employed were as follows: • i. Determination of Caco-2 permeability at pH 6.5 (pH7.4 for Comparative Example 6) was carried out at Cyprotex Ltd using standard protocols and SOPs. • ii. […] Dosing was as follows: single oral dose 5 mg/kg; single intravenous dose 1 mg/kg. • iii. Determination of pharmacokinetic parameters (CUT1/2/AUC/F %) in male Sprague-Dawley rats on Comparative Example 18 was carried out at BioDuro using standard protocols and SOPs. Dosing was as follows: oral dosing 5 mg/kg; intravenous dosing 1 mg/kg • iv. […] Dosing was as follows: repeated oral dose of 30 mg/kg, once a day for 7 days. Concentrations were measured at 4 h post dose on day 7. • v. Determination of tumor:plasma concentration ratio in the tumor-bearing mouse was carried out at Axis Bioservices Ltd using standard protocols and SOPs. Dosing was as follows: single oral dose of 30 mg/kg. • vi. Determination of CYP3A4/5 time-dependent inhibition (CYP3A4/5 IC50 shift value) was carried out at Cyprotex Ltd using standard protocols and SOPs. The in-vitro test system was: pooled human liver microsomes; a 30-min preincubation step with and without NADPH was included to observe the IC50 shift. • vii. Determination of the formation of reactive metabolites was carried out at Admescope Ltd using standard protocols and SOPs. The in-vitro test system was: human hepatocytes; the duration of incubation was: 2 hours; the technique for metabolite analysis was: LC-MS/MS.

[1] = Caco-2 permeability (Papp A-B); type: in vitro ADME; details: human
Procedure: as §1

human hepatocytes = test: Formation of reactive metabolites in human hepatocytes; type: in vitro ADME; details: 2 hours incubation, LC-MS/MS
Procedure: as §1, with “Determination of the formation of reactive metabolites was carried out at Admescope Ltd using standard protocols and SOPs. The in-vitro test system was: human hepatocytes; the duration of incubation was: 2 hours; the technique for metabolite analysis was: LC-MS/MS.” left out

CYP3A4/5 = CYP3A4/5 time-dependent inhibition (IC50 shift); type: in vitro ADME; details: pooled human liver microsomes, 30-min preincubation with and without NADPH
Procedure: as §1, with “Determination of the formation of reactive metabolites was carried out at Admescope Ltd using standard protocols and SOPs. The in-vitro test system was: human hepatocytes; the duration of incubation was: 2 hours; the technique for metabolite analysis was: LC-MS/MS.” left out

[2] = Brain:plasma concentration ratio in healthy mouse; type: in vivo; details: oral 30 mg/kg once a day for 7 days, 4 h post dose on day 7, read-out: Mouse tissue distribution brain/plasma ratio
Procedure: as §1, with “Determination of the formation of reactive metabolites was carried out at Admescope Ltd using standard protocols and SOPs. The in-vitro test system was: human hepatocytes; the duration of incubation was: 2 hours; the technique for metabolite analysis was: LC-MS/MS.” left out

[3] = Rat pharmacokinetics (CL, T1/2, AUC, F %); type: in vivo; details: male Sprague-Dawley rats; for clearance: single intravenous dose 1 mg/kg, plasma clearance, read-out: Rat PK CL; for AUC(0-inf): single oral dose 5 mg/kg, plasma exposure, read-out: Rat PK AUCinf; for half-life / bioavailability: plasma, intravenous 1 mg/kg; for half-life: elimination half-life, read-out: Rat PK T1/2 (converted); for bioavailability: oral 5 mg/kg, oral bioavailability, read-out: Rat PK F %
Procedure: as §1

[4] = Tumor:plasma concentration ratio in tumor-bearing mouse; type: in vivo; details: single oral dose 30 mg/kg, read-out: Mouse tissue distribution tumor/plasma ratio
Procedure: as §1, with “Determination of the formation of reactive metabolites was carried out at Admescope Ltd using standard protocols and SOPs. The in-vitro test system was: human hepatocytes; the duration of incubation was: 2 hours; the technique for metabolite analysis was: LC-MS/MS.” left out

[5] = Solubility in fasted state simulated gastric fluid (FaSSGF); type: physicochemical
[6] = Chemical stability in solution; type: physicochemical; details: Buffer at pH 7.4 and in DMSO
[7] = pH 6.5, read-out: caco-2 Papp A-B pH 6.5

SMILES	EC50 (pCDC2) [nM]	IC50 (Wee-1 kinase) [nM]	solubility kinetic (Kinetic solubility) [µM]	Papp A→B ([1]; pH 7.4, read-out: caco-2 Papp A-B (pH 7.4)) [×10⁻⁶ cm/s]	Reactive metabolite detected (human hepatocytes)	CYP3A4/5 IC50 shift (CYP3A4/5)	Kp at 4 h [2]	clearance [3] [mL/min/kg]	AUC(0-inf) [3] [ng·h/mL]	half-life [3] [h]	bioavailability [3] [%]	Kp [4]	Papp A→B [1, 7] [×10⁻⁶ cm/s]	solubility in fasted state simulated gastric fluid (FaSSGF) [5]	chemical stability in solution [6]
Cc1cc(Nc2ncc3c(n2)N(C)CN(c2c(C)cccc2Cl)C3=O)ccc1C1CCN(C)CC1 [CE 1, 3-(2-chloro-6-methylphenyl)-1-methyl-7-((3-methyl-4-(1-methylpiperidin-4-yl)phenyl)amino)-2,3-dihydropyrimido[4,5-d]pyrimidin-4(1H)-one]	695	2.8	189 (≈ 92.8 µg/mL)	–	–	–	–	–	–	–	–	–	–	–	–
CN1CCC(c2ccc(Nc3ncc4c(n3)N(C)CN(c3c(Cl)cccc3Cl)C4=O)cc2)CC1 [CE 95]	378	7.9	123 (≈ 61.2 µg/mL)	–	–	–	–	–	–	–	–	–	–	–	–
Cc1cc(Nc2ncc3c(n2)N(C)CN(c2c(Cl)cccc2Cl)C3=O)ccc1C1=CCN(C)CC1 [CE 178]	371	3.2	55 (≈ 28 µg/mL)	–	–	–	–	–	–	–	–	–	8.1	–	–
COc1cc(Nc2ncc3c(n2)N(C)CN(c2c(Cl)cccc2Cl)C3=O)ccc1C1CCN(C)CC1 [CE 183]	502	3.1	60 (≈ 31.6 µg/mL)	–	–	–	–	–	–	–	–	–	–	–	–
Cc1cc(Nc2ncc3c(n2)N(C)CN(c2c(Cl)cccc2Cl)C3=O)ccc1C1CCN(C)CC1 [Example 1, 3-(2,6-dichlorophenyl)-1-methyl-7-((3-methyl-4-(1-methylpiperidin-4-yl)phenyl)amino)-2,3-dihydropyrimido[4,5-d]pyrimidin-4(1H)-one]	–	–	215 (≈ 110 µg/mL)	–	no	–	0.69	14	1320	4.5	35	4	8.9	improved solubility	improved chemical stability in solution

The next lines start with the values.

EC50 (pCDC2) [nM]	IC50 (Wee-1 kinase) [nM]	solubility kinetic (Kinetic solubility) [µM]	Papp A→B ([1]; pH 7.4, read-out: caco-2 Papp A-B (pH 7.4)) [×10⁻⁶ cm/s]	Reactive metabolite detected (human hepatocytes)	CYP3A4/5 IC50 shift (CYP3A4/5)	Kp at 4 h [2]	clearance [3] [mL/min/kg]	AUC(0-inf) [3] [ng·h/mL]	half-life [3] [h]	bioavailability [3] [%]	Kp [4]	Papp A→B [1, 7] [×10⁻⁶ cm/s]	solubility in fasted state simulated gastric fluid (FaSSGF) [5]	chemical stability in solution [6]	SMILES
223	2.7	170 (≈ 84.7 µg/mL)	6.6	yes	2.3-3.0	0.16	26	1360	3.7	41	5.7	–	–	–	Cc1cc(Nc2ncc3c(n2)N(C)CN(c2c(Cl)cccc2Cl)C3=O)ccc1N1CCNCC1 [CE 6]
223	3.7	200 (≈ 99.5 µg/mL)	–	–	–	–	48	120	–	7	–	0.3	–	–	Cc1cc(Nc2ncc3c(n2)N(C)CN(c2c(Cl)cccc2Cl)C3=O)ccc1C1CCNCC1 [CE 18]
347	3.1	194 (≈ 102 µg/mL)	–	–	–	–	27	397	2.1	8	–	0.3	–	–	CN1CCC(c2ccc(Nc3ncc4c(n3)N(C)CN(c3c(Cl)cccc3Cl)C4=O)cc2CO)CC1 [CE 165]
